In patent US5726159A, “Antithrombotic agents” (Eli Lilly and Company, priority 1995, dated 1998):
Counter-ions that a name gives are not always drawn.

Assays:
Type in all cases: biochemical
Settings in all cases: concentration required to double the clotting time
Human plasma [1] = assay: Human plasma anticoagulation, thrombin time (TT)
Method: (§1) Dog plasma and rat plasma is obtained from conscious mixed-breed hounds (either sex, Hazelton-LRE, Kalamazoo, Mich., U.S.A.) or from anesthetized male Sprague-Dawley rats (Harlan Sprague-Dawley, Inc., Indianapolis, Ind., U.S.A.) by venipuncture into 3.8 percent citrate. Fibrinogen is prepared from in-date ACD human blood as the fraction I-2 according to previous procedures and specifications. […] Human fibrinogen is also purchased as 98 percent pure/plasmin free from American Diagnostica, Greenwich, Conn. Coagulation reagents ACTIN, Thromboplastin, and Human plasma are from Baxter Healthcare Corp., Dade Division, Miami, Fla. Bovine thrombin from Parke-Davis ([…], Mich.) is used for coagulation assays in plasma.
(§2) Coagulation assay procedures are as previously described. […] A CoAScreener coagulation instrument (American LABor, Inc.) is used for all coagulation assay measurements. The prothrombin time (PT) is measured by adding 0.05 mL saline and 0.05 mL Thromboplastin-C reagent to 0.05 mL test plasma. The activated partial thromboplastin time (APTT) is measured by incubation of 0.05 mL test plasma with 0.05 mL Actin reagent for 120 seconds followed by 0.05 mL CaCl2 (0.02M). The thrombin time (TT) is measured by adding 0.05 mL saline and 0.05 mL thrombin (10 NIH units/mL) to 0.05 mL test plasma. The compounds of Formula I are added to human or animal plasma over a wide range of concentrations to determine prolongation effects on the APTT, PT, and TT assays. Linear extrapolations are performed to estimate the concentrations required to double the clotting time for each assay.

Human plasma [2] = assay: Human plasma anticoagulation, activated partial thromboplastin time (APTT)
Method: as §1, §2

Human plasma [3] = assay: Human plasma anticoagulation, prothrombin time (PT)
Method: as §1, §2

CCC(CC)C(=O)N[C@@H](CCS(C)(=O)=O)C(=O)N1CCC[C@H]1C(=O)NCc1ccc(C(=N)N)cc1 [Example 91, (C2 H5)2 CHCO-Met(O2)-Pro-p-NHCH2 C6 H4 C(NH)NH2.HCl]
2x Clotting time TT (Human plasma [1]): 63 ng/mL | 2x Clotting time APTT (Human plasma [2]): 3,000 ng/mL | 2x Clotting time PT (Human plasma [3]): 3,500 ng/mL

N=C(N)c1ccc(CNC(=O)[C@@H]2CCCN2C(=O)[C@H]2C[C@H]3CCCC[C@H]3CN2)cc1 [Example 19, D-3-Piq-Pro-p-NHCH2 C6 H4 C(NH)NH2.3HCl]
2x Clotting time TT (Human plasma [1]): 58 ng/mL | 2x Clotting time APTT (Human plasma [2]): 300 ng/mL | 2x Clotting time PT (Human plasma [3]): 540 ng/mL

CCS(=O)(=O)N[C@H](CC1CCCCC1)C(=O)N1CCC[C@H]1C(=O)NCc1ccc(CN)cc1 [Example 81, EtSO2 -D-Cha-Pro-4-NHCH2 C6 H4 CH2 NH2.HCl]
2x Clotting time TT (Human plasma [1]): 110 ng/mL | 2x Clotting time APTT (Human plasma [2]): 1,500 ng/mL | 2x Clotting time PT (Human plasma [3]): 2,700 ng/mL

CCS(=O)(=O)N[C@H](Cc1ccccc1)C(=O)N1CCC[C@H]1C(=O)NCCCc1cccc(C(=N)N)c1 [Example 31, EtSO2 -D-Phe-Pro-m-NHCH2 CH2 CH2 -C6 H4 C(=NH)NH2.HCl]
2x Clotting time TT (Human plasma [1]): 10,800 ng/mL | 2x Clotting time APTT (Human plasma [2]): 34,500 ng/mL | 2x Clotting time PT (Human plasma [3]): 30,000 ng/mL

N=C(N)c1ccc(CNC(=O)[C@@H]2C[C@@H]3CCCC[C@@H]3N2C(=O)[C@H]2CCCCN2)cc1 [Example 20, D-hPro-Ohi-p-NHCH2 C6 H4 C(NH)NH2.3HCl]
2x Clotting time TT (Human plasma [1]): 62 ng/mL | 2x Clotting time APTT (Human plasma [2]): 550 ng/mL | 2x Clotting time PT (Human plasma [3]): 600 ng/mL

CCS(=O)(=O)N[C@H](Cc1ccccc1)C(=O)N1CCC[C@H]1C(=O)NCCc1ccc(NC(=N)N)cc1 [Example 35, EtSO2 -D-Phe-Pro-p-NHCH2 CH2 C6 H4 CNH(NH)NH2.HCl]
2x Clotting time TT (Human plasma [1]): 4,500 ng/mL | 2x Clotting time APTT (Human plasma [2]): 50,400 ng/mL | 2x Clotting time PT (Human plasma [3]): 78,400 ng/mL

Nc1cc(CCNC(=O)[C@@H]2CCCN2C(=O)[C@@H](CC2CCCCC2)NCC(=O)O)ccn1 [Example 76, HO2 CCH2 -D-Cha-Pro-4-NHCH2 CH2 -2-aminopyridine.HCl]
2x Clotting time TT (Human plasma [1]): 29 ng/mL | 2x Clotting time APTT (Human plasma [2]): 490 ng/mL | 2x Clotting time PT (Human plasma [3]): 560 ng/mL

O=C(O)CN[C@H](CC1CCCCC1)C(=O)N1CCC[C@H]1C(=O)NCCCC1=CCNCC1 [Example 60, HO2 CCH2 -D-Cha-Pro-4-NHCH2 CH2 CH2 -3,4-dehydro-piperidine.HCl]
2x Clotting time TT (Human plasma [1]): 3,200 ng/mL | 2x Clotting time APTT (Human plasma [2]): 22,200 ng/mL | 2x Clotting time PT (Human plasma [3]): 77,700 ng/mL

CCS(=O)(=O)N[C@H](Cc1ccccc1)C(=O)N1CCC[C@H]1C(=O)NCCCc1ccc(C(=N)N)cc1 [Example 30, EtSO2 -D-Phe-Pro-p-NHCH2 CH2 CH2 -C6 H4 C(=NH)NH2.HCl]
2x Clotting time TT (Human plasma [1]): 1,000 ng/mL | 2x Clotting time APTT (Human plasma [2]): 14,000 ng/mL | 2x Clotting time PT (Human plasma [3]): 14,400 ng/mL

Nc1ccc(CNC(=O)[C@@H]2CCCN2C(=O)[C@@H](CC2CCCCC2)NCC(=O)O)c(F)c1 [Example 64, HO2 CCH2 -D-Cha-Pro-4-NHCH2 -3-F-C6 H3 NH2.HCl]
2x Clotting time TT (Human plasma [1]): 23 ng/mL | 2x Clotting time APTT (Human plasma [2]): 900 ng/mL | 2x Clotting time PT (Human plasma [3]): 650 ng/mL

N=C(N)C1CCC(CNC(=O)[C@@H]2CCCN2C(=O)[C@@H](CC2CCCCC2)NCC(=O)O)NC1 (stereo partly drawn) [Example 67, HO2 CCH2 -D-Cha-Pro-2-NHCH2 -5-amidinopiperidine.HCl]
2x Clotting time TT (Human plasma [1]): 34. ng/mL | 2x Clotting time APTT (Human plasma [2]): 1,800 ng/mL | 2x Clotting time PT (Human plasma [3]): 1,300 ng/mL

N=C(N)c1ccc(CNC(=O)[C@@H]2CCCN2C(=O)[C@@H](CC2CCCCC2)NCCCC(=O)O)cc1 [Example 85, HOOCCH2 CH2 CH2 -D-Cha-Pro-p-NHCH2 C6 H4 C(NH)NH2.HCl]
2x Clotting time TT (Human plasma [1]): 4.9 ng/mL | 2x Clotting time APTT (Human plasma [2]): 100 ng/mL | 2x Clotting time PT (Human plasma [3]): 197 ng/mL
